Results reported in US11897862B2 (Gilead Sciences, Inc., priority 2022, dated 2024).

Key:
[1] = target: T1, IKZF1 (Homo sapiens, UniProt Q13422+Q96SW2); assay: HEK293 HiBiT in vitro degradation of IKZF1; assay type: cell-based; details: for DC50 / IKZF1 Dmax: HEK293 HiBiT; for DC50: 18-24 hr incubation, normalized to DMSO control, read-out: IKZF1 EC50; for IKZF1 Dmax / Dmax: maximum degradation at the highest concentration tested; for Dmax: HEK293, HEK293 HiBiT
T1 construct: expressed in transfected cells
T1 sequence (Q13422 whole entry): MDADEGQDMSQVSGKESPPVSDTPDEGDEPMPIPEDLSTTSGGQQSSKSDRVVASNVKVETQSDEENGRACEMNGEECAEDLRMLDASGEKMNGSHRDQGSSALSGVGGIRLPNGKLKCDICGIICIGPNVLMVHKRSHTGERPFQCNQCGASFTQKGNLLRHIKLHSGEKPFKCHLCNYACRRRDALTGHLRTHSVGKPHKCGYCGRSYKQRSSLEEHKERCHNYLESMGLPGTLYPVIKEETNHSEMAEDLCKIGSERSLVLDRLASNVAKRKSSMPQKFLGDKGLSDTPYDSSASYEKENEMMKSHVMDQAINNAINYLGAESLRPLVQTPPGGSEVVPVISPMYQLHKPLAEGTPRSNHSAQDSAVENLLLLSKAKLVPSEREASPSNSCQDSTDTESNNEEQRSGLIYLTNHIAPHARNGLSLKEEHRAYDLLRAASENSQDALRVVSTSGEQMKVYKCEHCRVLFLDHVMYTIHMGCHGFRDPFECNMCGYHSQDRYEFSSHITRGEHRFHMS
T1 sequence (Q96SW2 whole entry): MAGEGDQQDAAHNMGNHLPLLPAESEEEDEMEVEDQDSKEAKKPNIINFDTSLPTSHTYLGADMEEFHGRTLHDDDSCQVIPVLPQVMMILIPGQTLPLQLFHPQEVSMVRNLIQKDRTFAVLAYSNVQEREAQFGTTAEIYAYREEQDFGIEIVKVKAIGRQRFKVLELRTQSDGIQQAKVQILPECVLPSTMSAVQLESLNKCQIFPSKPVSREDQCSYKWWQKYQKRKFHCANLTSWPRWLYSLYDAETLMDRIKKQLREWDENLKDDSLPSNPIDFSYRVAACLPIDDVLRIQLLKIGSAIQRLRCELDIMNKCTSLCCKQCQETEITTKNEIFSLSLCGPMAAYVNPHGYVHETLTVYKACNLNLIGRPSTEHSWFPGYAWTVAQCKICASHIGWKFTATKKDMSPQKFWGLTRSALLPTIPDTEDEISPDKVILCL
T1 sequence (Q16531 whole entry partner): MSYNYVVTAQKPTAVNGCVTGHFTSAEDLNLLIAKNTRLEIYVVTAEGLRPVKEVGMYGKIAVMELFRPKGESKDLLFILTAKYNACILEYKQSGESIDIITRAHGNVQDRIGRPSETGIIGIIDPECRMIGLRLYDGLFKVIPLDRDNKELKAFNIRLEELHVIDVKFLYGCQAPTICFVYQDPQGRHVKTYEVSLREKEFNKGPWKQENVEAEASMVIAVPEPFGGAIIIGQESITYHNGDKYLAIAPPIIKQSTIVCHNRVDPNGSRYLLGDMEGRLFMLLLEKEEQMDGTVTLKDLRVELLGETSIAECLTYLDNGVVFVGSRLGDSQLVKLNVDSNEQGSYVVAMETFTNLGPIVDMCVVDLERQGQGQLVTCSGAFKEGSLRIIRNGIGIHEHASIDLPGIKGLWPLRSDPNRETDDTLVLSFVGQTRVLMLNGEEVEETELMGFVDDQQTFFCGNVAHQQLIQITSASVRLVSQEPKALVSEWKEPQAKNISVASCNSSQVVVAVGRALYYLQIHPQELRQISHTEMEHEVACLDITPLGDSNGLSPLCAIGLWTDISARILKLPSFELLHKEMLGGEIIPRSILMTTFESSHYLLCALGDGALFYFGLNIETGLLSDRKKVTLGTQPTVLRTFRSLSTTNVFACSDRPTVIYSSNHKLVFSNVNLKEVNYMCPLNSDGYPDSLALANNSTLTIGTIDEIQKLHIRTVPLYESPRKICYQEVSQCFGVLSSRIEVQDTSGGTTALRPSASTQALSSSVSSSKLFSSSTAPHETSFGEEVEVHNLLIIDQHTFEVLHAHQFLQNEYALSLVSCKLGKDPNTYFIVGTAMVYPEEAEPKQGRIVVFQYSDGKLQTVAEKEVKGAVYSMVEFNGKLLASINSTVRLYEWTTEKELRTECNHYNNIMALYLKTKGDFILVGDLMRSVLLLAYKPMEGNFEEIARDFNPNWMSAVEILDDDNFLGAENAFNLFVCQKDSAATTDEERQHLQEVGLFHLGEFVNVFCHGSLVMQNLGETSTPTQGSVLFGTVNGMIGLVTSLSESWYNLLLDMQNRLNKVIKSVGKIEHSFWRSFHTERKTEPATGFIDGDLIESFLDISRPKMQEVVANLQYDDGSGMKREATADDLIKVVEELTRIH
Procedure, shortened: (§1)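 Degradation was scored as loss of HiBiT signal from C-terminally tagged IKZF1, IKZF2 or SALL4 in doxycycline-induced Flp-In T-REx HEK293 cells after overnight (18-24 h) compound treatment. EC50 and Dmax were derived from the luminescence.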

[2] = target: IKZF2 (Homo sapiens, UniProt Q96SW2+Q9UKS7); assay: HEK293 HiBiT in vitro degradation of IKZF2; assay type: cell-based; set-up: expressed in transfected cells; details: for Dmax: HEK293, HEK293 HiBiT; for Dmax / IKZF2 Dmax: maximum degradation at the highest concentration tested; for DC50 / IKZF2 Dmax: HEK293 HiBiT; for DC50: 18-24 hr incubation, normalized to DMSO control, read-out: IKZF2 EC50
Sequence of IKZF2 (Q9UKS7 1-500 isoform Q9UKS7-2): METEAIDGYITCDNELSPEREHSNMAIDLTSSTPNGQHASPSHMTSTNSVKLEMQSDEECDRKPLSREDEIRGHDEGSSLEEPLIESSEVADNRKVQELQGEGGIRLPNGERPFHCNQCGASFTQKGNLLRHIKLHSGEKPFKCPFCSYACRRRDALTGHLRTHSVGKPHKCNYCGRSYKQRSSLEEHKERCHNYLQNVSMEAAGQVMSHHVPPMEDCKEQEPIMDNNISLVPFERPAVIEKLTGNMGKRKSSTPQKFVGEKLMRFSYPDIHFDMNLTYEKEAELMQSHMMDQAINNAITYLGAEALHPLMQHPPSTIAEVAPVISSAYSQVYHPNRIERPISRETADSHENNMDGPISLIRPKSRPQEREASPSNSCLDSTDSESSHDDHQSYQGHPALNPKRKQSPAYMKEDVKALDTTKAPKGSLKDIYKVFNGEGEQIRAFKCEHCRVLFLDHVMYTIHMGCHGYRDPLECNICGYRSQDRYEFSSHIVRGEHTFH
Sequence of IKZF2 (Q96SW2 whole entry): as the sequence (Q96SW2 whole entry) above
Sequence of IKZF2 (Q16531 whole entry partner): as the sequence (Q16531 whole entry partner) above
Procedure, shortened: as §1

| Compound | DC50 [1] | Dmax [2] | DC50 [2] | IKZF1 Dmax [1] | IKZF2 Dmax [2] | Dmax [1] |
| --- | --- | --- | --- | --- | --- | --- |
| CC(C)CC(C)N[C@H]1CCCC[C@@H]1Cc1ccc2c(c1)CN(C1CCC(=O)NC1=O)C2=O (some centres unmarked) [Example 185] | > 1000 nM | 98% | 6 nM | – | – | – |
| O=C1CCC(N2Cc3c(ccc(C[C@H]4CCCC[C@@H]4NCC4COC4)c3F)C2=O)C(=O)N1 (some centres unmarked) [Example 186] | 88 nM | – | 8 nM | 28% | 98% | – |
| O=C1CCC(N2Cc3c(ccc(C[C@H]4CCCC[C@@H]4NCC4CCOCC4)c3F)C2=O)C(=O)N1 (some centres unmarked) [Example 187] | 78 nM | – | 8 nM | 37% | 96% | – |
| O=C1CCC(N2Cc3c(ccc(C[C@H]4CCCC[C@@H]4NC4CCOCC4)c3F)C2=O)C(=O)N1 (some centres unmarked) [Example 188] | 44 nM | – | 2 nM | 34% | 98% | – |
| O=C1CCC(N2Cc3c(ccc(C[C@H]4CCCC[C@@H]4NC4CCOC4)c3F)C2=O)C(=O)N1 (some centres unmarked) [Example 189] | 39 nM | – | 2 nM | 46% | 97% | – |
| O=C1CCC(N2Cc3c(ccc(C[C@H]4CCCC[C@@H]4NC4CCOC4)c3F)C2=O)C(=O)N1 (some centres unmarked) [Example 190] | 57 nM | – | 2 nM | 44% | 97% | – |
| O=C1CCC(N2Cc3cc(C[C@H]4CCCC[C@@H]4NC4CC5CCC(C5)C4)ccc3C2=O)C(=O)N1 (some centres unmarked) [Example 191] | 63 nM | 97% | 2 nM | – | – | 30% |
| CC1(C)COCCC1N[C@H]1CCCC[C@@H]1Cc1ccc2c(c1)CN(C1CCC(=O)NC1=O)C2=O (some centres unmarked) [Example 192] | > 10000 nM | 94% | 6 nM | – | – | – |
| O=C1CCC(N2Cc3cc(C[C@H]4CCCC[C@@H]4NC4CC5CCC4O5)ccc3C2=O)C(=O)N1 (some centres unmarked) [Example 193] | > 1000 nM | 96% | 7 nM | – | – | – |
| O=C1CCC(N2Cc3cc(C[C@H]4CCCC[C@@H]4NC4C5CCC4COC5)ccc3C2=O)C(=O)N1 (some centres unmarked) [Example 194] | > 1000 nM | 92% | 20 nM | – | – | – |
| O=C1CCC(N2Cc3cc(C[C@H]4CCCC[C@@H]4NC4CCC5COC4O5)ccc3C2=O)C(=O)N1 (some centres unmarked) [Example 195] | > 1000 nM | 96% | 9 nM | – | – | – |
| O=C1CCC(N2Cc3cc(C[C@H]4CCCC[C@@H]4NC4CCCOCC4)ccc3C2=O)C(=O)N1 (some centres unmarked) [Example 197] | 68 nM | 97% | 5 nM | – | – | 22% |
| O=C1CCC(N2Cc3cc(C[C@H]4CCCC[C@@H]4NC4C[C@H]5COC[C@H]5C4)ccc3C2=O)C(=O)N1 (some centres unmarked) [Example 198] | > 1000 nM | 97% | 16 nM | – | – | – |
| O=C1CCC(N2Cc3cc(C[C@H]4CCCC[C@@H]4NC4C5CCCC4CC5)ccc3C2=O)C(=O)N1 (some centres unmarked) [Example 199] | > 10000 nM | 95% | 10 nM | – | – | – |
| CC(N[C@H]1CCCC[C@@H]1Cc1ccc2c(c1)CN(C1CCC(=O)NC1=O)C2=O)C1CCOCC1 (some centres unmarked) [Example 200] | > 1000 nM | 96% | 4 nM | – | – | – |
| CC(N[C@H]1CCCC[C@@H]1Cc1ccc2c(c1)CN(C1CCC(=O)NC1=O)C2=O)C1CCCC1 (some centres unmarked) [Example 201] | > 1000 nM | 96% | 7 nM | – | – | – |
| CC(N[C@H]1CCCC[C@@H]1Cc1ccc2c(c1)CN(C1CCC(=O)NC1=O)C2=O)C1CCCC1 (some centres unmarked) [Example 202] | > 1000 nM | – | 8 nM | – | 95% | – |
| CC(N[C@H]1CCCC[C@@H]1Cc1ccc2c(c1)CN(C1CCC(=O)NC1=O)C2=O)C1CCCCC1 (some centres unmarked) [Example 203] | > 1000 nM | 95% | 13 nM | – | – | – |
| CC(CC1CC1)N[C@H]1CCCC[C@@H]1Cc1ccc2c(c1)CN(C1CCC(=O)NC1=O)C2=O (some centres unmarked) [Example 204] | > 1000 nM | 97% | 4 nM | – | – | – |
| CC(CC(C)(C)C)N[C@H]1CCCC[C@@H]1Cc1ccc2c(c1)CN(C1CCC(=O)NC1=O)C2=O (some centres unmarked) [Example 205] | > 1000 nM | 98% | 3 nM | – | – | – |
| CC(N[C@H]1CCCC[C@@H]1Cc1ccc2c(c1)CN(C1CCC(=O)NC1=O)C2=O)C1(C)CCC1 (some centres unmarked) [Example 207] | > 1000 nM | – | 2 nM | – | 94% | – |
| [2H]C1(N[C@H]2CCCC[C@@H]2Cc2ccc3c(c2F)CN(C2CCC(=O)NC2=O)C3=O)CCC2(CC2)CC1 (some centres unmarked) [Example 210] | 30 nM | 97% | 1 nM | – | – | 68% |

| Compound | DC50 [1] | Dmax [2] | DC50 [2] | IKZF1 Dmax [1] | IKZF2 Dmax [2] | Dmax [1] |
| --- | --- | --- | --- | --- | --- | --- |
| [2H]C1(N[C@H]2CCCC[C@@H]2Cc2ccc3c(c2F)CN(C2CCC(=O)NC2=O)C3=O)CCCCC1 (some centres unmarked) [Example 211] | 54 nM | 98% | 1 nM | – | – | 37% |
| [2H]C1(N[C@H]2CCCC[C@@H]2Cc2ccc3c(c2F)CN(C2CCC(=O)NC2=O)C3=O)CCCC1 (some centres unmarked) [Example 212] | 45 nM | 98% | 1 nM | – | – | 42% |
| [2H]C1(N[C@H]2CCCC[C@@H]2Cc2ccc3c(c2F)CN(C2CCC(=O)NC2=O)C3=O)CC2(CC2)C1 (some centres unmarked) [Example 213] | 41 nM | 98% | 2 nM | – | – | 45% |
| [2H]C1(N[C@H]2CCCC[C@@H]2Cc2ccc3c(c2)CN(C2CCC(=O)NC2=O)C3=O)CCCCC1 (some centres unmarked) [Example 215] | 174 nM | 97% | 2 nM | – | – | 29% |
| O=C1CCC(N2Cc3cc(C[C@H]4CCCC[C@@H]4NC4CCC(C(F)F)CC4)ccc3C2=O)C(=O)N1 (some centres unmarked) [Example 216] | 51 nM | 98% | 2 nM | – | – | 34% |
| O=C1CCC(N2Cc3cc(C[C@H]4CCCC[C@@H]4NC4CCCCC45CC5)ccc3C2=O)C(=O)N1 (some centres unmarked) [Example 228] | > 1000 nM | 94% | 9 nM | – | – | – |
| O=C1CCC(N2Cc3cc(C[C@H]4CCCC[C@@H]4NC4CCCCC45CC5)ccc3C2=O)C(=O)N1 (some centres unmarked) [Example 229] | > 1000 nM | – | 8 nM | – | 97% | – |
| CC(N[C@H]1CCCC[C@@H]1Cc1ccc2c(c1)CN(C1CCC(=O)NC1=O)C2=O)C1(C)CC1 (some centres unmarked) [Example 234] | > 1000 nM | 98% | 11 nM | – | – | – |
| CC(N[C@H]1CCCC[C@@H]1Cc1ccc2c(c1)CN(C1CCC(=O)NC1=O)C2=O)C1(C)CC1 (some centres unmarked) [Example 235] | > 1000 nM | – | 9 nM | – | 97% | – |
| C[C@H]1CCCC(N[C@H]2CCCC[C@@H]2Cc2ccc3c(c2)CN(C2CCC(=O)NC2=O)C3=O)C1 (some centres unmarked) [Example 236] | 122 nM | 98% | 6 nM | – | – | 34% |
| C[C@H]1CCCC(N[C@H]2CCCC[C@@H]2Cc2ccc3c(c2)CN(C2CCC(=O)NC2=O)C3=O)C1 (some centres unmarked) [Example 237] | 208 nM | – | 2 nM | 39% | 96% | – |
| CCC(C)N[C@H]1CCCO[C@@H]1Cc1ccc2c(c1F)CN(C1CCC(=O)NC1=O)C2=O (stereo partly drawn) [Example 304, 3-(5-(((2R,3S)-3-(sec-butylamino)tetrahydro-2H-pyran-2-yl)methyl)-4-fluoro-1-oxoisoindolin-2-yl)piperidine-2,6-dione] | > 1000 nM | 97% | 3 nM | – | – | – |
| CC(C)C(C)N[C@H]1CCCO[C@@H]1Cc1ccc2c(c1F)CN(C1CCC(=O)NC1=O)C2=O (some centres unmarked) [Example 306] | > 1000 nM | 95% | 10 nM | – | – | – |
| CCC(C)N[C@H]1CCCC[C@@H]1Cc1ccc2c(c1F)CN(C1CCC(=O)NC1=O)C2=O (some centres unmarked) [Example 307] | 111 nM | 96% | 1 nM | – | – | 40% |
| CC(N[C@H]1CCCC[C@@H]1Cc1ccc2c(c1)CN(C1CCC(=O)NC1=O)C2=O)C1(C(F)F)CC1 (some centres unmarked) [Example 311] | > 1000 nM | 95% | 11 nM | – | – | – |
| CC(N[C@H]1CCCC[C@@H]1Cc1ccc2c(c1)CN(C1CCC(=O)NC1=O)C2=O)C1(C(F)F)CC1 (some centres unmarked) [Example 312] | > 1000 nM | – | 9 nM | – | 95% | – |
| O=C1CCC(N2Cc3cc(C[C@H]4CC(F)(F)CC[C@@H]4NC4CCCCC4)ccc3C2=O)C(=O)N1 (stereo partly drawn) [Example 313, 3-(5-(((1S,2S)-2-(cyclohexylamino)-5,5-difluorocyclohexyl)methyl)-1-oxoisoindolin-2-yl)piperidine-2,6-dione] | > 1000 nM | 88% | 27 nM | – | – | – |
| O=C1CCC(N2Cc3cc(C[C@H]4C=C(F)CC[C@@H]4NC4CCCCC4)ccc3C2=O)C(=O)N1 (stereo partly drawn) [Example 314, 3-(5-(((1S,6S)-6-(cyclohexylamino)-3-fluorocyclohex-2-en-1-yl)methyl)-1-oxoisoindolin-2-yl)piperidine-2,6-dione] | 653 nM | 70% | 90 nM | – | – | 30% |
| CC(C)N[C@H]1CCC(F)(F)C[C@@H]1Cc1ccc2c(c1)CN(C1CCC(=O)NC1=O)C2=O (some centres unmarked) [Example 315] | > 1000 nM | 88% | 28 nM | – | – | – |
| CC(N[C@H]1CCCO[C@@H]1Cc1ccc2c(c1F)CN(C1CCC(=O)NC1=O)C2=O)C1COC1 (some centres unmarked) [Example 318] | > 1000 nM | 96% | 20 nM | – | – | – |
| CC(N[C@H]1CCCO[C@@H]1Cc1ccc2c(c1F)CN(C1CCC(=O)NC1=O)C2=O)C1COC1 (some centres unmarked) [Example 319] | > 1000 nM | – | 24 nM | – | 95% | – |
